Key:
Assay in all cases: Field trial, post-emergence weed control
Assay type in all cases: in vivo
[1] = tested on: Brassica napus (imidazolinone tolerant)
Experimental: (§1) Synergism of the combination is then determined by comparing the observed response of the combination to the expected (or predicted) response as calculated from the observed responses of each individual component alone. If the observed response of the combination is greater than the expected (or predicted) response then the combination is said to be synergistic and falls within the definition of synergistic effect as previously defined.
(§2) In similar manner for the case of three-way combination, C3; is composed of component X plus component Y plus […] and Obs. designates the observed response of the combination C3. [formula]
(§3) Grassy and broadleaved weeds are either seeded perpendicular to the direction of the crop or broadcast in early to mid-May. The crop is seeded after the weed seed. Row width is 18 cm. The seed is drilled in with a Roger's 1.8 m width drill to a depth of 5 cm.
(§4) All trials employ standard accepted weed science procedures. Applications are made with a Roger's CO2-powered shrouded sprayer. Test design is a modified randomized complete block design with four replications. All applications are made post-emergence to the weeds and crop.
(§5) The test solutions are prepared by tank-mixing sufficient quantities of aqueous solutions and/or dispersions of the test compounds.
(§6) The treated plots are examined at intervals during the growing season and rated for percent control of weeds and crop injury. The data listed is an average of the replicates for that treatment. The Colby method of analysis is used to determine the resultant biological effect of the combination treatment as compared to the biological effect of each component when applied alone.

Salsola kali = tested on: Salsola kali
Experimental: as §1, with “In the following examples, synergism for two-way combinations is determined by the Colby^1 method, i.e. the expected (or predicted) response of the combination is calculated by taking the product of the observed response for each individual component of the combination when applied alone divided by 100 and subtracting this value from the sum of the observed response for each component when applied alone. Synergism” for “Synergism”
as §2, §3, §4, §5, §6

Sinapis arvensis = tested on: Sinapis arvensis
Experimental: as §1, with “In the following examples, synergism for two-way combinations is determined by the Colby^1 method, i.e. the expected (or predicted) response of the combination is calculated by taking the product of the observed response for each individual component of the combination when applied alone divided by 100 and subtracting this value from the sum of the observed response for each component when applied alone. Synergism” for “Synergism”
as §2, §3, §4, §5, §6

Galium aparine = tested on: Galium aparine
Experimental: as §1, with “In the following examples, synergism for two-way combinations is determined by the Colby^1 method, i.e. the expected (or predicted) response of the combination is calculated by taking the product of the observed response for each individual component of the combination when applied alone divided by 100 and subtracting this value from the sum of the observed response for each component when applied alone. Synergism” for “Synergism”
as §2, §3, §4, §5, §6

Chenopodium album = tested on: Chenopodium album
Experimental: as §1, with “In the following examples, synergism for two-way combinations is determined by the Colby^1 method, i.e. the expected (or predicted) response of the combination is calculated by taking the product of the observed response for each individual component of the combination when applied alone divided by 100 and subtracting this value from the sum of the observed response for each component when applied alone. Synergism” for “Synergism”
as §2, §3, §4, §5, §6

Polygonum convolvulus = tested on: Polygonum convolvulus
Experimental: as §1, with “In the following examples, synergism for two-way combinations is determined by the Colby^1 method, i.e. the expected (or predicted) response of the combination is calculated by taking the product of the observed response for each individual component of the combination when applied alone divided by 100 and subtracting this value from the sum of the observed response for each component when applied alone. Synergism” for “Synergism”
as §2, §3, §4, §5, §6

Kochia scoparia = tested on: Kochia scoparia
Experimental: as §1, with “In the following examples, synergism for two-way combinations is determined by the Colby^1 method, i.e. the expected (or predicted) response of the combination is calculated by taking the product of the observed response for each individual component of the combination when applied alone divided by 100 and subtracting this value from the sum of the observed response for each component when applied alone. Synergism” for “Synergism”
as §2, §3, §4, §5, §6

Brassica napus = tested on: Brassica napus
Experimental: as §1, with “In the following examples, synergism for two-way combinations is determined by the Colby^1 method, i.e. the expected (or predicted) response of the combination is calculated by taking the product of the observed response for each individual component of the combination when applied alone divided by 100 and subtracting this value from the sum of the observed response for each component when applied alone. Synergism” for “Synergism”
as §2, §3, §4, §5, §6

Setaria viridis = tested on: Setaria viridis
Experimental: as §1, with “In the following examples, synergism for two-way combinations is determined by the Colby^1 method, i.e. the expected (or predicted) response of the combination is calculated by taking the product of the observed response for each individual component of the combination when applied alone divided by 100 and subtracting this value from the sum of the observed response for each component when applied alone. Synergism” for “Synergism”
as §2, §3, §4, §5, §6

Stellaria media = tested on: Stellaria media
Experimental: as §1, with “In the following examples, synergism for two-way combinations is determined by the Colby^1 method, i.e. the expected (or predicted) response of the combination is calculated by taking the product of the observed response for each individual component of the combination when applied alone divided by 100 and subtracting this value from the sum of the observed response for each component when applied alone. Synergism” for “Synergism”
as §2, §3, §4, §5, §6

[2] = tested on: Polygonum (smartweed) spp.
Experimental: as §1, with “In the following examples, synergism for two-way combinations is determined by the Colby^1 method, i.e. the expected (or predicted) response of the combination is calculated by taking the product of the observed response for each individual component of the combination when applied alone divided by 100 and subtracting this value from the sum of the observed response for each component when applied alone. Synergism” for “Synergism”
as §2, §3, §4, §5, §6

Galeopsis tetrahit = tested on: Galeopsis tetrahit
Experimental: as §1, with “In the following examples, synergism for two-way combinations is determined by the Colby^1 method, i.e. the expected (or predicted) response of the combination is calculated by taking the product of the observed response for each individual component of the combination when applied alone divided by 100 and subtracting this value from the sum of the observed response for each component when applied alone. Synergism” for “Synergism”
as §2, §3, §4, §5, §6

Vaccaria pyramaidata = tested on: Vaccaria pyramaidata
Experimental: as §1, with “In the following examples, synergism for two-way combinations is determined by the Colby^1 method, i.e. the expected (or predicted) response of the combination is calculated by taking the product of the observed response for each individual component of the combination when applied alone divided by 100 and subtracting this value from the sum of the observed response for each component when applied alone. Synergism” for “Synergism”
as §2, §3, §4, §5, §6

Avena fatua = tested on: Avena fatua
Experimental: as §1, with “In the following examples, synergism for two-way combinations is determined by the Colby^1 method, i.e. the expected (or predicted) response of the combination is calculated by taking the product of the observed response for each individual component of the combination when applied alone divided by 100 and subtracting this value from the sum of the observed response for each component when applied alone. Synergism” for “Synergism”
as §2, §3, §4, §5, §6

Amaranthus retroflexus = tested on: Amaranthus retroflexus
Experimental: as §1, with “In the following examples, synergism for two-way combinations is determined by the Colby^1 method, i.e. the expected (or predicted) response of the combination is calculated by taking the product of the observed response for each individual component of the combination when applied alone divided by 100 and subtracting this value from the sum of the observed response for each component when applied alone. Synergism” for “Synergism”
as §3, §4, §5, §6

O=C(O)COc1ccc(Cl)cc1Cl [2,4-D, 2,4-dichlorophenoxyacetic acid]
Percent Control ([1]; 280 g/ha): 94%
Percent Control (Salsola kali; 280 g/ha): 35%
Percent Control (Sinapis arvensis; 280 g/ha): 92%
Percent Control (Galium aparine; 280 g/ha): 43%
Percent Control (Chenopodium album; 280 g/ha): 91%
Percent Control (Polygonum convolvulus; 280 g/ha): 48%
Percent Control (Kochia scoparia; 280 g/ha): 52%
Percent Control (Brassica napus; 280 g/ha): 93%
Percent Control (Setaria viridis; 280 g/ha): 0%
Percent Control (Stellaria media; 280 g/ha): 10%
Percent Control ([2]; 280 g/ha): 53%
Percent Control (Galeopsis tetrahit; 280 g/ha): 2%
Percent Control (Vaccaria pyramaidata; 280 g/ha): 51%
Percent Control (Avena fatua; 280 g/ha): 2%

O=C(O)c1nc(Cl)ccc1Cl [clopyralid]
Percent Control ([1]; 150 g/ha): 8%
Percent Control (Sinapis arvensis; 150 g/ha): 16%
Percent Control (Galium aparine; 150 g/ha): 0%
Percent Control (Chenopodium album; 150 g/ha): 51%
Percent Control (Brassica napus; 150 g/ha): 12%
Percent Control (Stellaria media; 150 g/ha): 10%

CCOC(=O)[C@@H](C)Oc1ccc(Oc2nc3ccc(Cl)cc3o2)cc1 [fenoxaprop-p-ethyl]
Percent Control ([1]; 72 g/ha): 0%
Percent Control (Sinapis arvensis; 72 g/ha): 0%
Percent Control (Chenopodium album; 72 g/ha): 0%
Percent Control (Polygonum convolvulus; 72 g/ha): 0%
Percent Control (Brassica napus; 72 g/ha): 0%
Percent Control (Setaria viridis; 72 g/ha): 98%
Percent Control (Vaccaria pyramaidata; 72 g/ha): 0%
Percent Control (Amaranthus retroflexus; 72 g/ha): 9%

O=C(Nc1ccc(F)cc1)c1cccc(Oc2cccc(C(F)(F)F)c2)n1 [picolinafen]
Percent Control ([1]; 50 g/ha): 65%
Percent Control (Salsola kali; 50 g/ha): 56%
Percent Control (Sinapis arvensis; 50 g/ha): 78%
Percent Control (Galium aparine; 50 g/ha): 28%
Percent Control (Chenopodium album; 50 g/ha): 57%
Percent Control (Polygonum convolvulus; 50 g/ha): 54%
Percent Control (Kochia scoparia; 50 g/ha): 59%
Percent Control (Brassica napus; 50 g/ha): 70%
Percent Control (Setaria viridis; 50 g/ha): 14%
Percent Control (Stellaria media; 50 g/ha): 64%
Percent Control ([2]; 50 g/ha): 26%
Percent Control (Galeopsis tetrahit; 50 g/ha): 59%
Percent Control (Vaccaria pyramaidata; 50 g/ha): 63%
Percent Control (Avena fatua; 50 g/ha): 5%
Percent Control (Amaranthus retroflexus; 50 g/ha): 90%

CCO/N=C(\CC)C1=C(O)CC(c2c(C)cc(C)cc2C)CC1=O (centres unmarked) [tralkoxydim]
Percent Control ([1]; 200 g/ha): 0%
Percent Control (Sinapis arvensis; 200 g/ha): 0%
Percent Control (Chenopodium album; 200 g/ha): 0%
Percent Control (Polygonum convolvulus; 200 g/ha): 0%
Percent Control (Brassica napus; 200 g/ha): 0%
Percent Control (Vaccaria pyramaidata; 200 g/ha): 0%
Percent Control (Avena fatua; 200 g/ha): 97%
Percent Control (Amaranthus retroflexus; 200 g/ha): 1%

imazamethabenz methyl
Percent Control ([1]; 400 g/ha): 0%
Percent Control (Salsola kali; 400 g/ha): 9%
Percent Control (Galium aparine; 400 g/ha): 48%
Percent Control (Chenopodium album; 400 g/ha): 18%
Percent Control (Kochia scoparia; 400 g/ha): 31%
Percent Control (Setaria viridis; 400 g/ha): 10%
Percent Control (Stellaria media; 400 g/ha): 8%
Percent Control ([2]; 400 g/ha): 76%
Percent Control (Galeopsis tetrahit; 400 g/ha): 4%
Percent Control (Vaccaria pyramaidata; 400 g/ha): 20%
Percent Control (Avena fatua; 400 g/ha): 88%
